{"source": "patent US8129397B2", "about": "“Substituted thieno[2,3-d]pyrimidines as AMPA modulators” (MSD Oss B.V., priority 2007, dated 2012)", "key": {"[1]": {"system": "postnatal rat cortical neurones", "assay": "Whole cell patch clamp recording of glutamate-evoked currents", "type": "cell-based", "conditions": "at 10 μM compound, glutamate 0.5 mM, holding potential −60 mV", "description": "B: Patch Clamp Recording.\nThe whole cell configuration of the patch clamp technique (Hamill et al., Pflugers Arch. 1981, […], 85-100) was used to measure glutamate-evoked currents from postnatal rat cortical neurones. A glass coverslip containing the culture was transferred to the recording chamber (Warner Instrument Corp., Hamden, Conn.) mounted on the stage of an inverted microscope (Nikon, Kingston, UK). The recording chamber contained 1-2 ml extracellular solution (145 mM NaCl, 5.4 mM KCl, 10 mM HEPES, 0.8 mM MgCl2, 1.8 CaCl2, 10 mM glucose and 30 mM sucrose, adjusted to pH 7.4 with 1M NaOH) and was constantly perused at a rate of 1 ml/min. Recordings were performed at room temperature (20-22° C.) using an Axopatch 200B amplifier (Axon Instruments Ltd., Foster City, Calif.). Data acquisition and analysis was performed using Signal software (Cambridge Electronic Design Ltd., Cambridge, UK). Pipettes were manufactured from GC120F-10 glass (Harvard Apparatus, Edenbridge UK) using a model P-87 electrode puller (Sutter Instruments Co., Novarto, Calif.). The patch electrodes had typical resistances of between 3-5 MQ when filled with intracellular solution (140 mM potassium gluconate, 20 mM HEPES, 1.1 mM EGTA, 5 mM phosphocreatine, 3 mM ATP, 0.3 mM GTP, 0.1 mM Caca2, 5 mM MgCl2, adjusted to pH 7.4 with 1M KOH). […]"}, "AMPA (GluR1) receptor": {"molecular_target": "T1, AMPA (GluR1) receptor (Homo sapiens, UniProt P42261)", "T1 construct": "expressed in transfected cells; host or cells: HEK cells (HEK.GluR1(i)), kept under hygromycin selection", "T1 sequence (P42261 19-906 isoform P42261-2 limits assumed, species assumed)": "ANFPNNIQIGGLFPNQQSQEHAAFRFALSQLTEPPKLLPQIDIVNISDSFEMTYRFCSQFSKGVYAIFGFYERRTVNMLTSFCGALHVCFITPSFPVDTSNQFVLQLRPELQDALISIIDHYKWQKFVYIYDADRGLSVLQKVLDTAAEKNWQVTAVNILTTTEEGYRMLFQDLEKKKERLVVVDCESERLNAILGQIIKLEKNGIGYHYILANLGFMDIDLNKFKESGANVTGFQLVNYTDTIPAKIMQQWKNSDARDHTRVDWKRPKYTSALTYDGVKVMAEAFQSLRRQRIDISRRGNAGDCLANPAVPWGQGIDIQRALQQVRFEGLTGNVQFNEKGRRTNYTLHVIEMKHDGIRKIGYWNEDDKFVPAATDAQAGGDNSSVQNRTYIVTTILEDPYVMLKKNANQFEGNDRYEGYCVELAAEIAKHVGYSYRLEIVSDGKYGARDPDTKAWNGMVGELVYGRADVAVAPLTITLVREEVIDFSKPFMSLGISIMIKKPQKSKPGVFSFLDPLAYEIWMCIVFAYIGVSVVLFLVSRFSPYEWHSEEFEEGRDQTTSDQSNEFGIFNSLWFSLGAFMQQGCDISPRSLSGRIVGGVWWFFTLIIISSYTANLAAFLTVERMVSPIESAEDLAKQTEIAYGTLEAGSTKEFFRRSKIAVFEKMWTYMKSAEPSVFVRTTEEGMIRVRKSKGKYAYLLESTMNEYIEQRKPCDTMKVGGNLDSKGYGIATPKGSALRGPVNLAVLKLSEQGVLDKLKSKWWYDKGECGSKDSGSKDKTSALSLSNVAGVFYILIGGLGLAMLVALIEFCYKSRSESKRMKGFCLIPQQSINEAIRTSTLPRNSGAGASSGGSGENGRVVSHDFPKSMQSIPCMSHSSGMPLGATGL", "assay": "Ca2+ influx fluorescence assay (FLEXstation, HEK.GluR1(i) cells)", "type": "cell-based", "conditions": "Ca2+ influx in the presence of glutamate, Fluo-3, read-out: EC50, positive modulation of the AMPA receptor", "text": "A: Ca^2+ Influx Fluorescence Assays\nThe compounds in this invention may be tested using a biological assay which measures Ca^2+ influx mediated through positive modulation of the AMPA (GluR1) receptor using standard techniques in the art such as, but not limited to, a FLEXstation (manufactured by Molecular Devices, Sunnyvale, Calif.). An optical readout using fluorescent probes is employed to measure ion channel dependent changes in intracellular ion concentration or membrane potential. The assay utilises the Ca^2+ conductance of functional homomeric GluR1(i) AMPA receptors to generate glutamate-dependent Ca^2+ responses. Influx of Ca^2+ through the ion channel is measured indirectly through an increase in intracellular Ca^2+ levels using the calcium sensitive dye such as, but not limited to, Fluo-3 (Molecular Devices, Sunnyvale, Calif.) in FLEXstation. A positive AMPA receptor modulator, in the presence of glutamate, will result in an influx of Ca^2+ through the ion channel which can be measured indirectly through an increase in intracellular Ca^2+ levels using the calcium sensitive dye Fluo-3 in FLEXstation.\nHEK.GluR1(i) cells were maintained in DMEM supplemented with 10% fetaclone II, 1% non-essential amino acids and 150 μg/mL hygromycin, at 37° C./5% CO2. […]"}}, "data": [{"smiles": "Cc1cc2c(=O)[nH]c(Cn3cc(CNCc4nccs4)c(C(F)(F)F)n3)nc2s1", "note": "[Example 1, 6-Methyl-2-((4-((thiazol-2-ylmethylamino)methyl)-3-(trifluoromethyl)-1H-pyrazol-1-yl)methyl)thieno[2,3-d]pyrimidin-4(3H)-one]", "values": [{"measurement": "percentage increase in steady state current", "setting": "[1]", "result": "235±44", "unit": "%"}, {"measurement": "EC50", "setting": "AMPA (GluR1) receptor", "result": 1, "unit": "µM"}]}]}
